ChEMBL document CHEMBL5724914, “Linking interpersonal differences in gut microbiota composition and drug biotransformation activity” (2024)

Assays:
[1] = (§1) The drug is tested on WLS-370 corresponding to human gut metagenome with ENA study accession number: PRJEB37062 and ENA sample accession number: ERS12561793 for biotransformation under anaerobic condition. The drug concentrations were measured over 9 timepoints collected between 0 and 24 hours of incubation by liquid-chromatography-coupled mass spectrometry (LC–MS); conditions: 2 µM
[2] = human gut metagenome, 24 h, 2 µM
[3] = as §1, with “Z-030” for “WLS-370”, “mouse” for “human”, “ERS12561829” for “ERS12561793”; conditions: 2 µM
[4] = human gut metagenome, 24 h, 2 µM; remark: listed apart in the source
[5] = as §1, with “Z-027” for “WLS-370”, “to” for “to human gut”, “ERS12561826” for “ERS12561793”; conditions: 2 µM
[6] = as §1, with “Z-001” for “WLS-370”, “mouse” for “human”, “ERS12561801” for “ERS12561793”; conditions: 2 µM
[7] = as §1, with “Z-018” for “WLS-370”, “pig” for “human”, “ERS12561817” for “ERS12561793”; conditions: 2 µM
[8] = as §1, with “WLS-069” for “WLS-370”, “ERS12561748” for “ERS12561793”; conditions: 2 µM
[9] = as §1, with “Z-003” for “WLS-370”, “pig” for “human”, “ERS12561803” for “ERS12561793”; conditions: 2 µM
[10] = as §1, with “WLS-082” for “WLS-370”, “ERS12561751” for “ERS12561793”; conditions: 2 µM
[11] = as §1, with “Z-014” for “WLS-370”, “rat” for “human”, “ERS12561814” for “ERS12561793”; conditions: 2 µM
[12] = as §1, with “Z-007” for “WLS-370”, “rat” for “human”, “ERS12561807” for “ERS12561793”; conditions: 2 µM
[13] = as §1, with “Z-029” for “WLS-370”, “rat” for “human”, “ERS12561828” for “ERS12561793”; conditions: 2 µM
[14] = as §1, with “WLS-073” for “WLS-370”, “ERS12561749” for “ERS12561793”; conditions: 2 µM
[15] = as §1, with “Z-009” for “WLS-370”, “pig” for “human”, “ERS12561809” for “ERS12561793”; conditions: 2 µM
[16] = human gut metagenome, 24 h, 2 µM; remark: listed apart in the source
[17] = as §1, with “WLS-098” for “WLS-370”, “ERS12561754” for “ERS12561793”; conditions: 2 µM
[18] = as §1, with “Z-008” for “WLS-370”, “to” for “to human gut”, “ERS12561808” for “ERS12561793”; conditions: 2 µM
[19] = human gut metagenome, 24 h, 2 µM; remark: listed apart in the source
[20] = human gut metagenome, 24 h, 2 µM; remark: listed apart in the source
Further: call rule not given here.

Row | Compound | Bacterial Biotransformation [1] | Bacterial Biotransformation [2] | Bacterial Biotransformation [3] | Bacterial Biotransformation [4] | Bacterial Biotransformation [5] | Bacterial Biotransformation [6] | Bacterial Biotransformation [7] | Bacterial Biotransformation [8] | Bacterial Biotransformation [9] | Bacterial Biotransformation [10] | Bacterial Biotransformation [11] | Bacterial Biotransformation [12] | Bacterial Biotransformation [13] | Bacterial Biotransformation [14] | Bacterial Biotransformation [15] | Bacterial Biotransformation [16] | Bacterial Biotransformation [17] | Bacterial Biotransformation [18] | Bacterial Biotransformation [19] | Bacterial Biotransformation [20]
1 | CCOc1ccccc1OCCN[C@H](C)Cc1ccc(OC)c(S(N)(=O)=O)c1.Cl [TAMSULOSIN HYDROCHLORIDE] | Compound NOT metabolized | Compound NOT metabolized | Compound NOT metabolized | Compound metabolized | Compound NOT metabolized | Compound NOT metabolized | Compound NOT metabolized | Compound NOT metabolized | Compound metabolized | Compound NOT metabolized | Compound NOT metabolized | Compound NOT metabolized | Compound NOT metabolized | Compound NOT metabolized | Compound NOT metabolized | Compound metabolized | Compound metabolized | Compound NOT metabolized | Compound NOT metabolized | Compound NOT metabolized
2 | COc1ccc2c(c1)c(CC(=O)O)c(C)n2C(=O)c1ccc(Cl)cc1 [INDOMETHACIN] | Compound metabolized | Compound metabolized | Compound NOT metabolized | Compound metabolized | Compound metabolized | Compound NOT metabolized | Compound metabolized | Compound metabolized | Compound NOT metabolized | Compound NOT metabolized | Compound NOT metabolized | Compound NOT metabolized | Compound NOT metabolized | Compound metabolized | Compound NOT metabolized | Compound metabolized | Compound metabolized | Compound NOT metabolized | Compound metabolized | Compound metabolized
3 | O=C(O)CCC(=O)O.O=C(O[C@H]1CN2CCC1CC2)N1CCc2ccccc2[C@@H]1c1ccccc1 [SOLIFENACIN SUCCINATE] | Compound metabolized | Compound NOT metabolized | Compound NOT metabolized | Compound metabolized | Compound NOT metabolized | Compound NOT metabolized | Compound metabolized | Compound metabolized | Compound metabolized | Compound metabolized | Compound NOT metabolized | Compound NOT metabolized | Compound NOT metabolized | Compound metabolized | Compound metabolized | Compound metabolized | Compound metabolized | Compound NOT metabolized | Compound metabolized | Compound metabolized
4 | CCN(CC)CCOC(=O)C1(C2CCCCC2)CCCCC1 [DICYCLOMINE] | Compound NOT metabolized | Compound NOT metabolized | Compound NOT metabolized | Compound metabolized | Compound NOT metabolized | Compound NOT metabolized | Compound NOT metabolized | Compound metabolized | Compound NOT metabolized | Compound metabolized | Compound NOT metabolized | Compound NOT metabolized | Compound NOT metabolized | Compound NOT metabolized | Compound metabolized | Compound metabolized | Compound NOT metabolized | Compound NOT metabolized | Compound metabolized | Compound NOT metabolized
5 | COc1ccc(/C=C/C(=O)Nc2ccccc2C(=O)O)cc1OC | Compound NOT metabolized | Compound NOT metabolized | Compound NOT metabolized | Compound NOT metabolized | Compound metabolized | Compound NOT metabolized | Compound metabolized | Compound metabolized | Compound metabolized | Compound metabolized | Compound metabolized | Compound NOT metabolized | Compound NOT metabolized | Compound metabolized | Compound metabolized | Compound NOT metabolized | Compound metabolized | Compound NOT metabolized | Compound NOT metabolized | Compound NOT metabolized
6 | CC(C)(C)NC[C@H](O)COc1nsnc1N1CCOCC1.O=C(O)/C=C\C(=O)O [TIMOLOL MALEATE] | Compound NOT metabolized | Compound NOT metabolized | Compound NOT metabolized | Compound NOT metabolized | Compound NOT metabolized | Compound NOT metabolized | Compound NOT metabolized | Compound NOT metabolized | Compound NOT metabolized | Compound NOT metabolized | Compound NOT metabolized | Compound NOT metabolized | Compound NOT metabolized | Compound NOT metabolized | Compound NOT metabolized | Compound NOT metabolized | Compound NOT metabolized | Compound NOT metabolized | Compound NOT metabolized | Compound NOT metabolized
7 | CC[C@@]1(O)C(=O)OCc2c1cc1n(c2=O)Cc2cc3c(CN(C)C)c(O)ccc3nc2-1 [TOPOTECAN] | Compound NOT metabolized | Compound NOT metabolized | Compound NOT metabolized | Compound NOT metabolized | Compound NOT metabolized | Compound NOT metabolized | Compound NOT metabolized | Compound NOT metabolized | Compound NOT metabolized | Compound NOT metabolized | Compound NOT metabolized | Compound NOT metabolized | Compound NOT metabolized | Compound NOT metabolized | Compound NOT metabolized | Compound NOT metabolized | Compound NOT metabolized | Compound NOT metabolized | Compound NOT metabolized | Compound NOT metabolized
8 | CC(C)(C)NCC(O)COc1cccc2c1CC(O)C(O)C2 (stereo not given) [NADOLOL] | Compound NOT metabolized | Compound NOT metabolized | Compound NOT metabolized | Compound metabolized | Compound NOT metabolized | Compound metabolized | Compound NOT metabolized | Compound metabolized | Compound metabolized | Compound NOT metabolized | Compound NOT metabolized | Compound NOT metabolized | Compound NOT metabolized | Compound NOT metabolized | Compound metabolized | Compound metabolized | Compound metabolized | Compound NOT metabolized | Compound NOT metabolized | Compound NOT metabolized
